For three compounds, inhibition results are on record in US6313310A, “4-and 5-alkynyloxindoles and 4-and 5-alkenyloxindoles” (Hoffmann-La Roche Inc., priority 1999, dated 2001).

Some results are limits rather than exact numbers.

The target of this assay is rat SAPK (isoform β) (Rattus norvegicus, UniProt P49187). The experiment in a line: SAPK FlashPlate Assay (inhibition of cJun phosphorylation). Format: biochemical. As to conditions: Table I B; for inhibition at 1 µM: Concentration <1.0 μM. How it is done:
"IC50 " refers to the concentration of a particular 4- or 5-alkynyloxindole or 4- or 5-alkenyloxindole required to inhibit 50% of cJun phosphorylation, which is a measure of inhibition of SAPK activity. IC50 can be measured, inter alia, using the assay described herein in Example 102.
Human JNK is highly homologous to rat SAPK. To measure the inhibitory activity of test compounds, the compounds were tested in the rat SAPK assay.
For the SAPK assay, purified GST-cJun (a chimeric protein containing cjun, a natural substrate of JNK) was coated on 96 well FlashPlates (New England Nuclear, Boston, Mass.). Purified rat SAPK (isoform β, Kyriakis et al. supra) was preincubated with preparations containing MEKK-1 and MKK4 for 30 minutes at 37° C. in assay buffer containing 25 mM HEPES, pH 7.5, 150 mM NaCl, 20 mM MgCl2, 2 mM DTT, 0.001% Tween 20, 1 μM ATP freshly added. In the preincubation step, MEKK-1 phosphorylates and activates MKK-4, which in turn phosphorylates and activates SAPK. The activated SAPK was then added to the cJun coated FlashPlates along with ^33 P-ATP (0.32 μCi per reaction) and test compounds. The plates were incubated for 30 minutes at 37° C., then washed with PBS, 0.01% Tween 20, and counted in the Topcount scintillation counter (Packard Instrument Co., Downers Grove, Ill.). Dilutions of compounds were tested in duplicate in each assay. The percent inhibition of cJun phosphorylation (a measure of inhibition of SAPK activity) was determined by the following formula: [formula]
where "test compound" refers to the average counts per minute of the test duplicates, "nonspecific" refers to the average counts per minute when no SAPK was added, and "total" refers to the average counts per minute when no compound was added.

rat SAPK (isoform β), sequence (P49187 whole entry, canonical isoform): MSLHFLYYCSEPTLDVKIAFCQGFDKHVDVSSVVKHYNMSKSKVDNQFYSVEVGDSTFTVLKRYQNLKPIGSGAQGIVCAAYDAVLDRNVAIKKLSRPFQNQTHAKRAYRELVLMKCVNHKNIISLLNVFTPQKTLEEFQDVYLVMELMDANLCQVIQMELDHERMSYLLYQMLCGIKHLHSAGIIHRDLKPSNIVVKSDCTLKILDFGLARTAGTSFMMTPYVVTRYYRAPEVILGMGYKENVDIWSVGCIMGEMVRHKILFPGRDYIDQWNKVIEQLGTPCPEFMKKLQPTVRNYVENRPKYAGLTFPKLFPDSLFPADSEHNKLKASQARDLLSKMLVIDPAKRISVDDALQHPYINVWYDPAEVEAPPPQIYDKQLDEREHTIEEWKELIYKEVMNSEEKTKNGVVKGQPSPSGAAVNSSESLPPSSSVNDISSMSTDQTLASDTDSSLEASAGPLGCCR

For `COc1cc[nH]c1/C=C1\C(=O)Nc2ccc(NC(=O)Cc3cccs3)c(C#Cc3cccnc3)c21` [III], for the setting “Concentration <0.10 μM”, the inhibition (in general, the percentage by which the read-out fell short of the control) at 0.1 µM was < 50%.

Consider `COc1cc[nH]c1/C=C1\C(=O)Nc2cccc(C#CC(O)c3cccn3C)c21` (racemic) [AA, rac-(Z)-1,3-Dihydro-4-[3-hydroxy-3-(1-methyl-pyrrol-2-yl)-1-propynyl]-3-[(3-methoxy-1H-pyrrol-2-yl)methylene]-2H-indol-2-one], for which the inhibition at 1 µM is > 50%.

For the compound `COc1cc(C(O)C#Cc2cccc3c2/C(=C/c2[nH]ccc2OC)C(=O)N3)ccc1O` (racemic) [O, rac-(Z)-1,3-Dihydro-4-[3-hydroxy-3-(4-hydroxy-3-methoxyphenyl)-1-propynyl]-3-[(3-methoxy-1H-pyrrol-2-yl)methylene]-2H-indol-2-one], the inhibition at 1 µM is > 50%.
